# From patent US8791079B2, “Methods for treating heart failure by inhibiting the mitochondrial sodium-calcium exchanger (mNCE)” (priority 2009, dated 2014)
# Read-outs that look alike come from different tables or passages of the source.
# What was measured:
# HF patients = details: cited from earlier work; for mortality: post hoc analysis of DIG trial
# Guinea pig hearts [1] = test: Hemodynamics of isolated perfused hearts (Langendorff); details: 25-nM isoproterenol in ouabain-treated hearts, absence (isoproterenol) or presence of CGP-37157
# From the text: (§1) Guinea pig hearts were quickly excised under anesthesia and mounted on a modified Langendorff apparatus attached to a Powerlab system (AD Instruments, Colorado Springs, Colo.). Hearts were perfused with gassed (95/5% O2/CO2) control buffer containing: 118-mM NaCl, 24-mM NaHCO3, 1.2-mM KH2PO4, 4.75-mM KCl, 1.2-mM MgSO4, 2.0-mM CaCl2, and 10-mM glucose. A buffer-filled latex balloon (Harvard apparatus) was inserted through the mitral valve into the left ventricle. Hearts were suspended in a buffer-filled heating chamber maintained at 37° C. and two electrodes were placed into the bath for volume-conducted electrocardiogram recordings. Heart rate, left ventricular developed pressure (LVDP), maximal rates of contraction and relaxation (±dP/dt), oxygen consumption, and electrocardiograms (ECG) were recorded on a computer. After a ten-minute equilibration period, hearts were subjected to the following protocol: ten-minute baseline recording while the heart was perfused with control buffer, ten-minute recording while 0.25-μM ouabain with or without 1 μM CGP-37157, and sixty-minute recording while hearts were stimulated with 25-nM isoproterenol. The measurements of hemodynamic parameters were determined by taking the average during the last two minutes before ouabain treatment (baseline) and for two minutes during the maximal effect on LVDP of either ouabain or isoproterenol.
# In Table 1A-1C, hemodynamics of isolated perfused hearts were recorded at baseline, with ouabain treatment (1 μM), and with ouabain plus isoproterenol (100 nM) stimulation with or without CGP-37157 (1 μM). HR, heart rate; LVDP, left ventricular developed pressure; Oua: ouabain; CGP: CGP-37157; VF: ventricular fibrillation. *p<0.05 compared to group without CGP; † p<0.05 compared to baseline.
# Guinea pig hearts [2] = test: Oxygen consumption in isolated perfused hearts; details: ouabain followed by isoproterenol, without (isoproterenol) or with CGP-37157
# From the text: as §1
# Cardiac O2 concentration was measured with an O2 probe attached to a PowerLab system (AD Instruments). The probe was calibrated with 95% O2-saturated buffer as 100% and 100% N2-saturated buffer as 0%. The molar concentration of O2 consumption was calculated from percentage concentration with the following equation: VO2(μmol/min/g dwt)=CF×(0.02373/22.414)×((760−p)/760)×(ΔO2%/100)/dwt
# where CF is coronary flow (mL/min); 0.02373 is the absorption coefficient of O2 in H2O at 37° C.; 22.414 is the volume (L) of 1 mol gas at STP; 760 is 1 atm in mm Hg; p equals 47.067, which is the vapor pressure of H2O at 37° C.; ΔO2% is the difference in O2 percentage concentration between inflow buffer collected from cannula before heart was mounted and outflow buffer collected from pulmonary artery; dwt is dry heart weight.
Structure (SMILES),"overall mortality (HF patients; DIG trial, HF patients)",mortality (HF patients; SDC ≧1.0 ng/mL),mortality (HF patients; serum digoxin concentration (SDC) 0.5-0.9 ng/mL),increase of +dP/dt compared to the level with ouabain treatment (Guinea pig hearts [1]),increase of LVDP compared to the level with ouabain treatment (Guinea pig hearts [1]),increase of heart rate (HR) compared to the level with ouabain treatment (Guinea pig hearts [1]),increase of −dP/dt compared to the level with ouabain treatment (Guinea pig hearts [1]),increase of whole-heart oxygen consumption (VO2) compared to baseline (Guinea pig hearts [2])
"C[C@H]1O[C@@H](OC2[C@@H](O)C[C@H](OC3[C@@H](O)CC(O[C@H]4CC[C@@]5(C)[C@H](CC[C@@H]6[C@@H]5C[C@@H](O)[C@]5(C)[C@@H](C7=CC(=O)OC7)CC[C@]65O)C4)O[C@@H]3C)O[C@@H]2C)C[C@H](O)C1O (stereo in doubt) [digoxin, 4-[(3S,5R,8R,9S,10S,12R,13S,14S)-3-[(2S,4S,5R,6R)-5-[(2S,4S,5R,6R)-5-[(2S,4S,5R,6R)-4,5-dihydroxy-6-methyl-oxan-2-yl]oxy-4-hydroxy-6-methyl-oxan-2-yl]oxy-4-hydroxy-6-methyl-oxan-2-yl]oxy-12,14-dihydroxy-10,13-dimethyl-1,2,3,4,5,6,7,8,9,11,12,15,16,17-tetradecahydrocyclopenta[a]phenanthren-17-yl]-5H-furan-2-one]",did not affect overall mortality,no effect on mortality,reduced mortality of all HF patients,,,,,
"CC(C)NCC(O)c1ccc(O)c(O)c1 (centres unmarked) [isoproterenol, 4-[1-hydroxy-2-(isopropylamino)ethyl]benzene-1,2-diol, reference compound]",,,,57%,not increased further,28%,52%,25%
